In experiment [1] the target is [GSPT1]-[compound of formula (I)]-[CRBN/DDB1] complex (Homo sapiens, UniProt P15170+Q96SW2). Nature of the experiment: AlphaLISA ternary complex formation assay (GSPT1). The experiment is classed as binding. Conditions: 0.5 h; 1 μM compound; normalized to reference compound CC-885; read-out: Normalized AlphaLISA ternary complex average signal at 1 μM molecule. The procedure, abridged:
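Biotinylated GSPT1 on streptavidin donor beads and 6×His-CRBN/DDB1 on anti-His acceptor beads (each 200 nM before mixing) in HBS pH 7.4 with 0.1% Tween-20 and 1 mM DTT, 2% DMSO final, 30 min at 25 °C. AlphaLISA luminescence is normalized between DMSO background and the reference compound's maximum.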
Background: Alpha assays give light when donor and acceptor beads are brought close together.

Experiment [2] concerns the target T1, GSPT1-HiBiT protein in GSPT1-HiBiT HEK293 cells (Homo sapiens, UniProt P15170+Q96SW2).
T1 construct: endogenous in cells; host or cells: HEK293 (CRISPR/Cas9 knock-in of HiBiT at the GSPT1 locus)
Nature of the experiment: GSPT1 degradation assay using HiBiT system (Nano-Glo HiBiT lytic assay). The format is cell-based. Conditions: 6 hours treatment; for DC50: read-out: HiBiT lytic assay Geomean absolute DC50. The procedure, abridged: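 CRISPR-engineered HEK293 cells expressing endogenous C-terminally HiBiT-tagged GSPT1, seeded at 2×10^3/well overnight, then treated 6 h at 37 °C with 12-point titrations (10 μM to 0.03 nM, 0.25% DMSO). Remaining GSPT1 measured by Nano-Glo HiBiT lytic luminescence. DC50 and Dmax from non-linear regression of DMSO-normalized RLU.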
(In general: With HiBiT, luminescence reflects the tagged protein that the partner subunit can reach.)

Experiment [3] addresses T2, [SALL4 ZF2]-[compound]-[CRBN/DDB1] ternary complex (Homo sapiens, UniProt Q96SW2+Q9UJQ4).
T2 construct: SALL4 ZF2
The experiment in a line: AlphaLISA assay for off-target recruitment detection, SALL4 ZF2. Conditions: 1 μM compound; normalized to Lenalidomide; read-out: Normalized ternary complex response, SALL4 ZF2. The experiment is classed as binding. The procedure, abridged:
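Neo-substrate with 40 μg/ml donor beads and 200 nM 6×His-CRBN/DDB1 with 40 μg/ml anti-His acceptor beads were each prepared in PBS pH 7.4 with Tween-20 and 1 mM DTT, preincubated 30 min at RT, then mixed. Compounds at 2% DMSO were incubated 30 min at 25 °C, read at 680/615 nm, and normalised between DMSO background and reference glue maximum.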

A value given as a limit tells only on which side of the number the result lay.

T2 sequence (Q9UJQ4 410-432 limits assumed): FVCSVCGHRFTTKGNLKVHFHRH
T2 sequence (Q96SW2 whole entry): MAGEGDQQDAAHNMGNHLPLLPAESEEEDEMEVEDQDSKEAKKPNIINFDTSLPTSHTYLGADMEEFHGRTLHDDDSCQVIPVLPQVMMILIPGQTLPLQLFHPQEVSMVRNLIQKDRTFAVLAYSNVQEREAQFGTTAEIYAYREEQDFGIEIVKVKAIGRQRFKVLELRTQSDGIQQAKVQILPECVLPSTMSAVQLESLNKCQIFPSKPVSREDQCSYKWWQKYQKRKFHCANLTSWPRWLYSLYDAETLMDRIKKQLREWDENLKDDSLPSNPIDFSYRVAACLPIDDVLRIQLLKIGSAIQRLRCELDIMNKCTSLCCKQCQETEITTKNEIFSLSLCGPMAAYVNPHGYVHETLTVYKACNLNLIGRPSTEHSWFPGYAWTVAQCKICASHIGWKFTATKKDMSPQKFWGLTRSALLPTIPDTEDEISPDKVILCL
T2 sequence (Q16531 whole entry partner): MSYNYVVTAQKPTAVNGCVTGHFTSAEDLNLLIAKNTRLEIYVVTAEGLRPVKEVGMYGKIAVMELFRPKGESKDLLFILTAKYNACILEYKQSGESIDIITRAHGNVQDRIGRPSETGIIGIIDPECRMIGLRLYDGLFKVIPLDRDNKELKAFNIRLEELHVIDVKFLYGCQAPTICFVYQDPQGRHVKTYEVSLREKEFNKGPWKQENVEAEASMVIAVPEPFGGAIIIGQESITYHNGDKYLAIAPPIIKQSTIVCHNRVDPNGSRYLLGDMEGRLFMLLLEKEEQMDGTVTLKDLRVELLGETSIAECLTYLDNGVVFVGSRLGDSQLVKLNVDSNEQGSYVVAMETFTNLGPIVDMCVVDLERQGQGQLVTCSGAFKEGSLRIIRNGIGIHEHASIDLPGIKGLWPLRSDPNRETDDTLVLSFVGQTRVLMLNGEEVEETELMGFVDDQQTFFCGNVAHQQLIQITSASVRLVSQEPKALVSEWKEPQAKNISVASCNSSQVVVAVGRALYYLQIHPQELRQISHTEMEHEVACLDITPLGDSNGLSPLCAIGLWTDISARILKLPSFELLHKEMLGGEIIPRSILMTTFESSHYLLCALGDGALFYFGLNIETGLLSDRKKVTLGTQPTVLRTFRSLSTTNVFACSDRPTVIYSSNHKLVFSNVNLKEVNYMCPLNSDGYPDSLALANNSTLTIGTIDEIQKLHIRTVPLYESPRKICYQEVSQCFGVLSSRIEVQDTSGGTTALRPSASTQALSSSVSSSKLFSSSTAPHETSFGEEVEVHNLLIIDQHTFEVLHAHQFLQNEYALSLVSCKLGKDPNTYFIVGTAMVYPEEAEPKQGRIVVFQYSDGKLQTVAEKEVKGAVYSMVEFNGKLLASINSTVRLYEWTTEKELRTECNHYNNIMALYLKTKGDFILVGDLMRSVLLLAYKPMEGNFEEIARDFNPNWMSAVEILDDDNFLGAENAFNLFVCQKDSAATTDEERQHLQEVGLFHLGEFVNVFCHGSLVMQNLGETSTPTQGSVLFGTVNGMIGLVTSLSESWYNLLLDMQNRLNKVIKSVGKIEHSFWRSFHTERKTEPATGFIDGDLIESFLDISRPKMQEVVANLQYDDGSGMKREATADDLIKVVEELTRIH
[GSPT1]-[compound of formula (I)]-[CRBN/DDB1] complex, sequence (P15170 whole entry): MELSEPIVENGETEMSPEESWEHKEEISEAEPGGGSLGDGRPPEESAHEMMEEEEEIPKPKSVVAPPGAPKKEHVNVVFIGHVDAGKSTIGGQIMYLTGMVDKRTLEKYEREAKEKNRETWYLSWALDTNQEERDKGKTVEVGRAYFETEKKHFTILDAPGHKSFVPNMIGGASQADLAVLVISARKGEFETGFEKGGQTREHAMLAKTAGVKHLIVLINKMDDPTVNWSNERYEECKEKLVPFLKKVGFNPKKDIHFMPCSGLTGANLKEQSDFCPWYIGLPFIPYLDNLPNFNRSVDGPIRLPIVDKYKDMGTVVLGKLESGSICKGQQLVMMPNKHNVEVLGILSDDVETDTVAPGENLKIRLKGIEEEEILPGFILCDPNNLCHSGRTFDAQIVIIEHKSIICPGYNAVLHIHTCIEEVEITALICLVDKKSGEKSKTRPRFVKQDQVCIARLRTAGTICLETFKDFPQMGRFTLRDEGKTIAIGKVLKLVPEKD
[GSPT1]-[compound of formula (I)]-[CRBN/DDB1] complex, sequence (Q96SW2 whole entry): as the sequence (Q96SW2 whole entry) above
[GSPT1]-[compound of formula (I)]-[CRBN/DDB1] complex, sequence (Q16531 whole entry partner): as the sequence (Q16531 whole entry partner) above
T1 sequence (P15170 whole entry): as the sequence (P15170 whole entry) above
T1 sequence (Q96SW2 whole entry): as the sequence (Q96SW2 whole entry) above
T1 sequence (Q16531 whole entry partner): as the sequence (Q16531 whole entry partner) above

By Dmax is commonly meant the largest share of the target that was removed. The low end stands for a partial loss of target, the high end for a fuller loss of target. The DC50 is the concentration giving 50% degradation. As to `Cc1ccc(NC(=O)OCc2ccc3nc(C)c(N4CCC(=O)NC4=O)cc3c2)cc1Cl` [Compound 29, (3-(2,4-dioxotetrahydropyrimidin-1(2H)-yl)-2-methylquinolin-6-yl)methyl (3-chloro-4-methylphenyl)carbamate], the figures for the activation at 1 µM in experiment [1] and in experiment [3] were 10 to 50% and 25 to 50%, respectively. Further, the maximal degradation (Dmax) in experiment [2] is at least 75%. Further, the DC50 in experiment [2] lay in the range of 10 to 50 nM.
For `Cc1ccc(NC(=O)CCc2ccc3cc(C4CCC(=O)NC4=O)c(C)nc3c2)cc1Cl` (stereo not drawn) [Compound 32, N-(3-chloro-4-methylphenyl)-3-(3-(2,6-dioxopiperidin-3-yl)-2-methylquinolin-7-yl)propanamide], in that order: above 50%, below 10%, at least 75% and 10 to 50 nM.
For `Cc1ccc(NC(=O)OCc2ccc3cc(C4CCC(=O)NC4=O)c(C)nc3c2)c(Cl)c1Cl` (stereo not drawn) [Compound 54, (3-(2,6-dioxopiperidin-3-yl)-2-methylquinolin-7-yl)methyl (2,3-dichloro-4-methylphenyl)carbamate], in that order: above 50%, below 10%, at least 75% and 10 to 50 nM.
For `Cc1ccc(NC(=O)NCc2ccc3cc(N4CCC(=O)NC4=O)c(C)nc3c2)cc1Cl` [Compound 27, 1-(3-chloro-4-methylphenyl)-3-((3-(2,4-dioxotetrahydropyrimidin-1(2H)-yl)-2-methylquinolin-7-yl)methyl)urea], in that order: 10 to 50%, below 10%, at least 75% and 50 to 100 nM.
On to `Cc1nc2cc(COC(=O)Nc3cc(C(C)(C)C)n[nH]3)ccc2cc1C1CCC(=O)NC1=O` (stereo not drawn) [Compound 75, (3-(2,6-dioxopiperidin-3-yl)-2-methylquinolin-7-yl)methyl (3-(tert-butyl)-1H-pyrazol-5-yl)carbamate], for which, in experiment [1], the activation at 1 µM was above 50%. For the same molecule, in experiment [2], the Dmax was at least 75% and the DC50 is 10 to 50 nM. The activation at 1 µM in experiment [3] was below 10%.
The matching figures for `[2H]C([2H])(OC(=O)Nc1cc(C(C)(C)C)no1)c1ccc2cc(C3CCC(=O)NC3=O)c(C)nc2c1` (stereo not drawn) [Compound 82, (3-(2,6-dioxopiperidin-3-yl)-2-methylquinolin-7-yl)methyl-d2 (3-(tert-butyl)isoxazol-5-yl)carbamate]: above 50%, at least 75%, below 10 nM and below 10%.
